Patent US8747740B2, “Process and apparatus for generating haloamine biocide” (Hercules Incorporated, priority 2007, dated 2014)

Assay: Stability of chloramine in aqueous solution
Format: physicochemical
Conditions: pH of about 10 to about 11; partially decomposes at higher concentrations or lower pH

With NCl [chloramine, Monochloramine] the “concentration up to which chloramine is stable” value was “up to 1,000 ppm”.
